Source: the NIST ThermoML archive (doi:10.1021/acs.jced.9b00074)

Assay: xn = mol fraction of the nth substance listed
Details: 100 kPa, Liquid; for viscosity: Falling or rolling sphere viscometry; for mass density: Vibrating tube method

OC1CCCC1 [cyclopentanol] + C1C[C@@H]2[C@H]3CC[C@H](C3)[C@@H]2C1
Details | mass density [kg/m3] | viscosity [mPa·s]
293.15 K, x1 = 0.101 | 935.59 | 3.091
293.15 K, x1 = 0.201 | 935.84 | 3.26
293.15 K, x1 = 0.296 | 936.28 | 3.471
293.15 K, x1 = 0.3962 | 937.08 | 3.794
293.15 K, x1 = 0.5016 | 938.1 | 4.304
293.15 K, x1 = 0.6017 | 939.39 | 5.009
293.15 K, x1 = 0.7011 | 940.96 | 5.976
293.15 K, x1 = 0.7968 | 942.64 | 7.24
293.15 K, x1 = 0.9005 | 944.8 | 9.125
298.15 K, x1 = 0.101 | 931.59 | 2.829
298.15 K, x1 = 0.201 | 931.81 | 2.917
298.15 K, x1 = 0.296 | 932.23 | 3.093
298.15 K, x1 = 0.3962 | 932.99 | 3.355
298.15 K, x1 = 0.5016 | 934 | 3.762
298.15 K, x1 = 0.6017 | 935.27 | 4.32
298.15 K, x1 = 0.7011 | 936.86 | 5.083
298.15 K, x1 = 0.7968 | 938.57 | 6.076
298.15 K, x1 = 0.9005 | 940.78 | 7.555
303.15 K, x1 = 0.101 | 927.56 | 2.564
303.15 K, x1 = 0.201 | 927.75 | 2.623
303.15 K, x1 = 0.296 | 928.14 | 2.774
303.15 K, x1 = 0.3962 | 928.88 | 2.987
303.15 K, x1 = 0.5016 | 929.87 | 3.316
303.15 K, x1 = 0.6017 | 931.12 | 3.761
303.15 K, x1 = 0.7011 | 932.71 | 4.367
303.15 K, x1 = 0.7968 | 934.45 | 5.154
303.15 K, x1 = 0.9005 | 936.7 | 6.316
308.15 K, x1 = 0.101 | 923.52 | 2.329
308.15 K, x1 = 0.201 | 923.67 | 2.376
308.15 K, x1 = 0.296 | 924.03 | 2.499
308.15 K, x1 = 0.3962 | 924.74 | 2.674
308.15 K, x1 = 0.5016 | 925.71 | 2.941
308.15 K, x1 = 0.6017 | 926.94 | 3.298
308.15 K, x1 = 0.7011 | 928.53 | 3.78
308.15 K, x1 = 0.7968 | 930.28 | 4.407
308.15 K, x1 = 0.9005 | 932.57 | 5.324
313.15 K, x1 = 0.101 | 919.47 | 2.122
313.15 K, x1 = 0.201 | 919.57 | 2.156
313.15 K, x1 = 0.296 | 919.9 | 2.261
313.15 K, x1 = 0.3962 | 920.57 | 2.404
313.15 K, x1 = 0.5016 | 921.52 | 2.62
313.15 K, x1 = 0.6017 | 922.73 | 2.908
313.15 K, x1 = 0.7011 | 924.31 | 3.296
313.15 K, x1 = 0.7968 | 926.07 | 3.796
313.15 K, x1 = 0.9005 | 928.4 | 4.527
318.15 K, x1 = 0.101 | 915.4 | 1.94
318.15 K, x1 = 0.201 | 915.45 | 1.965
318.15 K, x1 = 0.296 | 915.74 | 2.053
318.15 K, x1 = 0.3962 | 916.37 | 2.171
318.15 K, x1 = 0.5016 | 917.29 | 2.348
318.15 K, x1 = 0.6017 | 918.48 | 2.58
318.15 K, x1 = 0.7011 | 920.05 | 2.893
318.15 K, x1 = 0.7968 | 921.82 | 3.293
318.15 K, x1 = 0.9005 | 924.18 | 3.878
323.15 K, x1 = 0.101 | 911.31 | 1.779
323.15 K, x1 = 0.201 | 911.3 | 1.799
323.15 K, x1 = 0.296 | 911.55 | 1.871
323.15 K, x1 = 0.3962 | 912.15 | 1.968
323.15 K, x1 = 0.5016 | 913.03 | 2.112
323.15 K, x1 = 0.6017 | 914.19 | 2.302
323.15 K, x1 = 0.7011 | 915.74 | 2.554
323.15 K, x1 = 0.7968 | 917.51 | 2.876
323.15 K, x1 = 0.9005 | 919.9 | 3.346
328.15 K, x1 = 0.101 | 907.2 | 1.639
328.15 K, x1 = 0.201 | 907.12 | 1.65
328.15 K, x1 = 0.296 | 907.33 | 1.711
328.15 K, x1 = 0.3962 | 907.88 | 1.791
328.15 K, x1 = 0.5016 | 908.73 | 1.908
328.15 K, x1 = 0.6017 | 909.87 | 2.063
328.15 K, x1 = 0.7011 | 911.39 | 2.268
328.15 K, x1 = 0.7968 | 913.16 | 2.527
328.15 K, x1 = 0.9005 | 915.56 | 2.906
333.15 K, x1 = 0.101 | 903.08 | 1.514
333.15 K, x1 = 0.201 | 902.92 | 1.521
333.15 K, x1 = 0.296 | 903.08 | 1.569
333.15 K, x1 = 0.3962 | 903.59 | 1.635
333.15 K, x1 = 0.5016 | 904.4 | 1.732
333.15 K, x1 = 0.6017 | 905.5 | 1.858
333.15 K, x1 = 0.7011 | 907 | 2.023
333.15 K, x1 = 0.7968 | 908.75 | 2.233
333.15 K, x1 = 0.9005 | 911.17 | 2.54
